Test results from ChEMBL document CHEMBL5096210, “Discovery of Betulinic Acid Derivatives as Potent Intestinal Farnesoid X Receptor Antagonists to Ameliorate Nonalcoholic Steatohepatitis” (J Med Chem, 2022).
The source made the active and inactive calls. The calls are words filed in the database; no cut-off is given here.

Assays:
[1] = Cytotoxicity against HEK293T cells cotransfected with pCMV-Script-hFXR/pGL4.11-hSHP-Luciferase incubated for 24 hrs in presence of GW4064 by celltiter-blue cell viability assay; type: toxicity, cell-based, HEK-293T; settings: human
Bile acid receptor = target: T1, Bile acid receptor (Homo sapiens, UniProt Q96RI1); assay: Antagonist activity at FXR (unknown origin) expressed in HEK293T cells cotransfected with pCMV-Script-hFXR/pGL4.11-hSHP-Luciferase incubated for 24 hrs in presence of GW4064 by Steady-glo luciferase assay; type: cell-based
T1 sequence (Q96RI1 whole entry): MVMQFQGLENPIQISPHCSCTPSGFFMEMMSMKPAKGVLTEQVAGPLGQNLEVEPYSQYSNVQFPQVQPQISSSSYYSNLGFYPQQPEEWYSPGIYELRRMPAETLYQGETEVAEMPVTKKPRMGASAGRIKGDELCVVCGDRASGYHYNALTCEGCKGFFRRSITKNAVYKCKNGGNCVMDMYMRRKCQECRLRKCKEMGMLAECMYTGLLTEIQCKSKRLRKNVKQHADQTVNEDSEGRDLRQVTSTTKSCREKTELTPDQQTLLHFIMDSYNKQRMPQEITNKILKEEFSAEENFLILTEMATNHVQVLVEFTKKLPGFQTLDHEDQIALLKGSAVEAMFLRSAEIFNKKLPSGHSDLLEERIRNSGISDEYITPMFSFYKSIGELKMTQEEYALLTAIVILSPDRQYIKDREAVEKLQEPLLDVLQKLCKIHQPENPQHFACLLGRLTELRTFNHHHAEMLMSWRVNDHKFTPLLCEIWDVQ

[2] = target: T2, Bile acid receptor (Homo sapiens) (UniProt Q96RI1); assay: Agonist activity against FXR (unknown origin) at upto 100 uM; settings: filed as agonist
T2 sequence (whole entry): T1 sequence (Q96RI1 whole entry)

[3] = target: T3, G-protein coupled bile acid receptor 1 (Homo sapiens, UniProt Q8TDU6); assay: Agonist activity against TGR5 (unknown origin); type: functional
T3 sequence (Q8TDU6 whole entry): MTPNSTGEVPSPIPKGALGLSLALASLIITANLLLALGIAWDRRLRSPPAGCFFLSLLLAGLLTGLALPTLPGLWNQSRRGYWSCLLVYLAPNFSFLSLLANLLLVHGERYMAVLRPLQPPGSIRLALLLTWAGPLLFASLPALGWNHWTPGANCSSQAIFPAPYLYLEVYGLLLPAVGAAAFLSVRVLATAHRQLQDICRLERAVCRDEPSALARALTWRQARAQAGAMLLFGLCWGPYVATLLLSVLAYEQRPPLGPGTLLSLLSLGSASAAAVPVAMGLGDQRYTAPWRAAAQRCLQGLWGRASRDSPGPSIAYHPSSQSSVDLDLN

## CC(C)[C@@H]1CC[C@]2(C(=O)NCC(=O)O)CC[C@]3(C)[C@H](CC[C@@H]4[C@@]5(C)CC[C@@H](O)C(C)(C)[C@@H]5CC[C@]43C)[C@@H]12
[1]
  IC50 at 24 h: > 100 µM
Bile acid receptor
  IC50: 74 µM
[2]
  Activity: Active
[3]
  EC50: > 100 µM
